Test results reported in patent publication US8637508B2, “Heterocyclic derivatives and their use in the treatment of neurological disorders” (Novartis AG, priority 2011, dated 2014).
Where two headings read alike, the source gives them in different places.

Tests used:
human BACE-2 = human BACE-2 (Homo sapiens (Human), UniProt Q9Y5Z0); experiment: Test 2: Inhibition of human BACE-2; type: biochemical; settings: mean IC50, recombinant BACE-2, acetate buffer pH 4.5, fluorescence-quenched peptide substrate; read-out: BACE-2 IC50
Sequence of human BACE-2 (Q9Y5Z0 63-473): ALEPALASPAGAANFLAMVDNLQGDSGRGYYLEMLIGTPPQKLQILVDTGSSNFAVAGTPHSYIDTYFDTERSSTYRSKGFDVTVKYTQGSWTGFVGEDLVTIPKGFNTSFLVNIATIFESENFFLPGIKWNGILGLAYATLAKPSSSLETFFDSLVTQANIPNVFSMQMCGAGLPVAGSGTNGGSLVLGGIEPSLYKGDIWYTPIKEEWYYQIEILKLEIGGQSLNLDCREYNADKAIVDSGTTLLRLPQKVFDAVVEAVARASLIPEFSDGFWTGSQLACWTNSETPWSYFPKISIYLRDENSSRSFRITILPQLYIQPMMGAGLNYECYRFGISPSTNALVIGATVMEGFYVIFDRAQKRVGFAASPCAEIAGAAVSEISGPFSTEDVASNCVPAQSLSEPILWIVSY
Description: Test 2: Inhibition of Human BACE-2

human BACE-1 = human BACE-1 (Homo sapiens (Human), UniProt P56817); experiment: Test 1: Inhibition of human BACE-1
Sequence of human BACE-1 (P56817 46-457): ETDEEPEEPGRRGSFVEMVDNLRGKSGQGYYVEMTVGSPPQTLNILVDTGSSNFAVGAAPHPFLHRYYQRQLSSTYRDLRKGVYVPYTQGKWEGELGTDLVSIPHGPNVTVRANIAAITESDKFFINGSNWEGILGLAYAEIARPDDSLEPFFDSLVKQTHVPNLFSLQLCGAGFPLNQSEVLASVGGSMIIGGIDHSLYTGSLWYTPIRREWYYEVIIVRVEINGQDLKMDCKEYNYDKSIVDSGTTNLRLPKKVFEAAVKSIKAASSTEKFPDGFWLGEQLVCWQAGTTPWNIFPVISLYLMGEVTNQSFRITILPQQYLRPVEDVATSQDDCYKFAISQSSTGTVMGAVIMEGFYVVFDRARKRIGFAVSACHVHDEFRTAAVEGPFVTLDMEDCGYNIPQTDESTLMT

[1] = read-out: BACE-1 IC50, mean IC50, recombinant BACE-1, acetate buffer pH 4.5, fluorescence-quenched peptide substrate

Row | Structure (SMILES) | IC50 (human BACE-2) [nM] | IC50 (human BACE-1) [nM] | IC50 (human BACE-1; [1]) [nM]
1 | C[C@@]1(c2nc(NC(=O)c3nc4ccn(CC(F)F)c4cc3Cl)ccc2F)CO[C@@](C)(C(F)(F)F)C(N)=N1 [Example 47, 6-Chloro-1-(2,2-difluoro-ethyl)-1H-pyrrolo[3,2-b]pyridine-5-carboxylic acid [6-((3R,6R)-5-amino-3,6-dimethyl-6-trifluoromethyl-3,6-dihydro-2H-[1,4]oxazin-3-yl)-5-fluoro-pyridin-2-yl]-amide] | 5400 | > 10000 | 
2 | CC1(c2cccc(NC(=O)c3ccc(Br)cn3)n2)COCC(N)=N1 (racemic) [Example 2, 5-Bromo-pyridine-2-carboxylic acid [6-(5-amino-3-methyl-3,6-dihydro-2H-[1,4]-oxazin-3-yl)-pyridin-2-yl]-amide] | 360 |  | 790
3 | NC(=S)c1ccc(C(=O)Nc2cccc(C3(CF)COCC(N)=N3)n2)nc1 (centres unmarked) [Example 7, 5-{6-[(5-Thiocarbamoyl-pyridine-2-carbonyl)-amino]-pyridin-2-yl}-5-fluoromethyl-5,6-dihydro-2H-[1,4]oxazin-3-yl-ammonium trifluoro-acetate] | 8700 |  | 2100
4 | C[C@@]1(c2cccc(NC(=O)c3ncc(Br)cc3Cl)n2)CO[C@@](C)(C(F)(F)F)C(N)=N1 [Example 22, 5-Bromo-3-chloro-pyridine-2-carboxylic acid [6-((3R,6R)-5-amino-3,6-dimethyl-6-trifluoromethyl-3,6-dihydro-2H-[1,4]oxazin-3-yl)-pyridin-2-yl]-amide] | 5 |  | 13
5 | C[C@@]1(c2cc(NC(=O)c3ncc(C#N)cc3Cl)ncc2F)CO[C@@](C)(C(F)(F)F)C(N)=N1 [Example 35, 3-Chloro-5-cyano-pyridine-2-carboxylic acid [4-((3R,6R)-5-amino-3,6-dimethyl-6-trifluoromethyl-3,6-dihydro-2H-[1,4]oxazin-3-yl)-5-fluoro-pyridin-2-yl]-amide] | 120 |  | 150
6 | Cc1cc(C#N)cnc1C(=O)Nc1ccc(F)c([C@@]2(C(F)F)COCC(N)=N2)n1 [Example 39, 5-Cyano-3-methyl-pyridine-2-carboxylic acid [6-((S)-5-amino-3-difluoromethyl-3,6-dihydro-2H-[1,4]oxazin-3-yl)-5-fluoro-pyridin-2-yl]-amide] | 6500 |  | 1500
7 | C[C@@]1(c2cccc(NC(=O)c3ncc(C#N)cc3N)n2)CO[C@@](C)(C(F)(F)F)C(N)=N1 [Example 19, 3-Amino-5-cyano-pyridine-2-carboxylic acid [6-((3R,6R)-5-amino-3,6-dimethyl-6-trifluoromethyl-3,6-dihydro-2H-[1,4]oxazin-3-yl)-pyridin-2-yl]-amide] | 82 |  | 43
